# From patent US20250213532A1, “5-METHOXY-N,N-[…][…] THE TREATMENT OF BIPOLAR DISORDER” (GH RESEARCH IRELAND LIMITED, priority 2022, published 2025)
# What was measured:
# [1] = tested on: patients with treatment-resistant major depressive disorder (TRD); assay: Phase 1/2 clinical trial of inhaled 5-MeO-DMT in TRD: BPRS; assay type: in vivo, human; settings: for BPRS Emotional Withdrawal percentage improvement / BPRS Emotional Withdrawal score (sum): baseline 13
# From the text: The Brief Psychiatric Rating Scale (BPRS) is intended to screen for psychiatric symptoms in a structured fashion. The scale is one of the most widely used scales to measure psychotic symptoms and was first published in 1962. The design has later been updated.
# The 18 items (somatic concern, anxiety, emotional withdrawal, conceptual disorganization, guilt feelings, tension, mannerisms and posturing, grandiosity, depressive mood, hostility, suspiciousness, hallucinatory behaviour, motor retardation, uncooperativeness, unusual thought content, blunted affect, excitement and disorientation) are scored and each item is rated on a scale of 1-7.
# Based on the answers and the behaviours observed, a physician or psychologist will complete the BPRS form by ranking the severity of each area using a scale of one to seven: a score of one means an absence of signs or symptoms up to a score of seven that means it is present and at a severe level. If it is not possible to rate the specific signs or symptoms, a score of 0 or “Not assessed” is recorded.
# Patients were assigned to different groups.
# This trial was designed in two parts.
# [2] = tested on: patients with treatment-resistant major depressive disorder (TRD); assay: Phase 1/2 clinical trial of inhaled 5-MeO-DMT in TRD: safety and tolerability; settings: Part A
# Method: This trial was designed in two parts. Part A was an open-label, single-arm, single-dose Phase 1 trial with two dose levels (12 mg (n=4) and 18 mg (n=4)). […] The primary endpoint of Part B was to assess the effects on the severity of depression, as assessed by the proportion of patients in remission on day seven after dosing, defined as a MADRS total score of less than or equal to 10.
# [3] = tested on: Salmonella typhimurium TA98, TA100, TA1535 and TA1537; assay: Bacterial mutation test, Salmonella typhimurium; assay type: cell-based; settings: up to 5000 µg/plate; absence and presence of rat liver S-9
# From the text: (§1) These conditions included treatments at concentrations up to […] (the maximum recommended concentration according to current regulatory guidelines), in the absence and in the presence of a rat liver metabolic activation system (S-9).
# [4] = tested on: Escherichia coli WP2 uvrA pKM101; assay: Bacterial mutation test, Escherichia coli; assay type: cell-based; settings: up to 5000 pg/plate; absence and presence of rat liver S-9
# From the text: as §1
# [5] = tested on: patients with clinically diagnosed postpartum depression (PPD); assay: Clinical trial of inhaled 5-MeO-DMT in postpartum depression: MADRS; assay type: in vivo, human; settings: one PPD patient; for MADRS Concentration Difficulties improvement / MADRS Concentration Difficulties score / MADRS Reduced appetite improvement / MADRS Reduced appetite score / MADRS Suicidal Thoughts improvement / MADRS Suicidal Thoughts score: baseline 0; for MADRS Inability to Feel improvement / MADRS Inability to Feel score / MADRS Lassitude improvement / MADRS Lassitude score: baseline 3; for MADRS Pessimistic Thoughts improvement / MADRS Pessimistic Thoughts score / MADRS Reported sadness improvement / MADRS Reported sadness score: baseline 4; for MADRS Apparent sadness improvement / MADRS Apparent sadness score / MADRS Inner Tension improvement / MADRS Inner Tension score / MADRS Reduced Sleep improvement / MADRS Reduced Sleep score: baseline 5
# From the text: The patient completed all planned visit days.
# [6] = 12 mg n=4, 3 hours, baseline 11
# [7] = 12 mg n=4, 3 hours, baseline 14
# [8] = 12 mg n=4, 3 hours, baseline 18
# [9] = 12 mg n=4, 3 hours, baseline 25
compound,measurement,setting,value
COc1ccc2[nH]cc(CCN(C)C)c2c1 [5-MeO-DMT],BPRS Blunted Affect percentage improvement,[1]; [6],27%
same,BPRS Blunted Affect score (sum),[1]; [6],8
same,BPRS Emotional Withdrawal percentage improvement,"[1]; 12 mg n=4, 3 hours",15%
same,BPRS Emotional Withdrawal score (sum),"[1]; 12 mg n=4, 3 hours",11
same,BPRS Tension percentage improvement,[1]; [7],36%
same,BPRS Tension score (sum),[1]; [7],9
same,BPRS Guilt Feelings percentage improvement,[1]; [8],50%
same,BPRS Guilt Feelings score (sum),[1]; [8],9
same,BPRS Anxiety percentage improvement,[1]; [9],56%
same,BPRS Anxiety score (sum),[1]; [9],11
same,BPRS Blunted Affect score (sum),"[1]; 12 mg n=4, Day 1, baseline 11",6
same,BPRS Emotional Withdrawal score (sum),"[1]; 12 mg n=4, Day 1",8
same,BPRS Tension percentage improvement,"[1]; 12 mg n=4, Day 1, baseline 14",57%
same,BPRS Tension score (sum),"[1]; 12 mg n=4, Day 1, baseline 14",6
same,BPRS Guilt Feelings percentage improvement,"[1]; 12 mg n=4, Day 1, baseline 18",72%
same,BPRS Guilt Feelings score (sum),"[1]; 12 mg n=4, Day 1, baseline 18",5
same,BPRS Anxiety percentage improvement,"[1]; 12 mg n=4, Day 1, baseline 25",76%
same,BPRS Anxiety score (sum),"[1]; 12 mg n=4, Day 1, baseline 25",6
same,BPRS Blunted Affect score (sum),"[1]; 12 mg n=4, Day 7, baseline 11",5
same,BPRS Emotional Withdrawal score (sum),"[1]; 12 mg n=4, Day 7",6
same,BPRS Tension percentage improvement,"[1]; 12 mg n=4, Day 7, baseline 14",57%
same,BPRS Tension score (sum),"[1]; 12 mg n=4, Day 7, baseline 14",6
same,BPRS Guilt Feelings percentage improvement,"[1]; 12 mg n=4, Day 7, baseline 18",72%
same,BPRS Guilt Feelings score (sum),"[1]; 12 mg n=4, Day 7, baseline 18",5
same,BPRS Anxiety percentage improvement,"[1]; 12 mg n=4, Day 7, baseline 25",76%
same,BPRS Anxiety score (sum),"[1]; 12 mg n=4, Day 7, baseline 25",6
same,BPRS Emotional Withdrawal percentage improvement,"[1]; IDR n=8, 3 hours",38%
same,BPRS Emotional Withdrawal score (sum),"[1]; IDR n=8, 3 hours",8
same,BPRS Blunted Affect percentage improvement,"[1]; IDR n=8, 3 hours, baseline 15",27%
same,BPRS Blunted Affect score (sum),"[1]; IDR n=8, 3 hours, baseline 15",11
same,BPRS Tension percentage improvement,"[1]; IDR n=8, 3 hours, baseline 16",31%
same,BPRS Tension score (sum),"[1]; IDR n=8, 3 hours, baseline 16",11
same,BPRS Guilt Feelings percentage improvement,"[1]; IDR n=8, 3 hours, baseline 34",59%
same,BPRS Guilt Feelings score (sum),"[1]; IDR n=8, 3 hours, baseline 34",14
same,BPRS Anxiety percentage improvement,"[1]; IDR n=8, 3 hours, baseline 37",49%
same,BPRS Anxiety score (sum),"[1]; IDR n=8, 3 hours, baseline 37",19
same,BPRS Emotional Withdrawal score (sum),"[1]; IDR n=8, Day 1",8
same,BPRS Blunted Affect score (sum),"[1]; IDR n=8, Day 1, baseline 15",8
same,BPRS Tension percentage improvement,"[1]; IDR n=8, Day 1, baseline 16",31%
same,BPRS Tension score (sum),"[1]; IDR n=8, Day 1, baseline 16",11
same,BPRS Guilt Feelings percentage improvement,"[1]; IDR n=8, Day 1, baseline 34",68%
same,BPRS Guilt Feelings score (sum),"[1]; IDR n=8, Day 1, baseline 34",11
same,BPRS Anxiety percentage improvement,"[1]; IDR n=8, Day 1, baseline 37",57%
same,BPRS Anxiety score (sum),"[1]; IDR n=8, Day 1, baseline 37",16
same,BPRS Emotional Withdrawal score (sum),"[1]; IDR n=8, Day 7",8
same,BPRS Blunted Affect score (sum),"[1]; IDR n=8, Day 7, baseline 15",8
same,BPRS Tension percentage improvement,"[1]; IDR n=8, Day 7, baseline 16",38%
same,BPRS Tension score (sum),"[1]; IDR n=8, Day 7, baseline 16",10
same,BPRS Guilt Feelings percentage improvement,"[1]; IDR n=8, Day 7, baseline 34",71%
same,BPRS Guilt Feelings score (sum),"[1]; IDR n=8, Day 7, baseline 34",10
same,BPRS Anxiety percentage improvement,"[1]; IDR n=8, Day 7, baseline 37",54%
same,BPRS Anxiety score (sum),"[1]; IDR n=8, Day 7, baseline 37",17
same,Patients who experienced at least one ADR,[2]; 12 mg single dose,3 of 4
same,Patients who experienced at least one ADR,[2]; 18 mg single dose,3 of 4
same,Induction of mutation,[3],did not induce mutation
same,Induction of mutation,[4],did not induce mutation
same,MADRS remission (total score equal or less than 10),[5],fulfilled standard criteria
same,MADRS response (at least 50% improvement from baseline),[5],fulfilled standard criteria
same,MADRS Concentration Difficulties improvement,[5]; 2 hr,0
same,MADRS Concentration Difficulties score,[5]; 2 hr,0
same,MADRS Reduced appetite improvement,[5]; 2 hr,0
same,MADRS Reduced appetite score,[5]; 2 hr,0
same,MADRS Suicidal Thoughts improvement,[5]; 2 hr,0
same,MADRS Suicidal Thoughts score,[5]; 2 hr,0
same,MADRS Inability to Feel improvement,[5]; 2 hr,3
same,MADRS Inability to Feel score,[5]; 2 hr,0
same,MADRS Lassitude improvement,[5]; 2 hr,3
same,MADRS Lassitude score,[5]; 2 hr,0
same,MADRS Pessimistic Thoughts improvement,[5]; 2 hr,4
same,MADRS Pessimistic Thoughts score,[5]; 2 hr,0
same,MADRS Reported sadness improvement,[5]; 2 hr,4
same,MADRS Reported sadness score,[5]; 2 hr,0
same,MADRS Apparent sadness improvement,[5]; 2 hr,5
same,MADRS Apparent sadness score,[5]; 2 hr,0
same,MADRS Inner Tension improvement,[5]; 2 hr,5
same,MADRS Inner Tension score,[5]; 2 hr,0
same,MADRS Reduced Sleep improvement,[5]; 2 hr,0
same,MADRS Reduced Sleep score,[5]; 2 hr,5
same,MADRS Concentration Difficulties improvement,[5]; Day 1,0
same,MADRS Concentration Difficulties score,[5]; Day 1,0
same,MADRS Reduced appetite improvement,[5]; Day 1,0
same,MADRS Reduced appetite score,[5]; Day 1,0
same,MADRS Suicidal Thoughts improvement,[5]; Day 1,0
same,MADRS Suicidal Thoughts score,[5]; Day 1,0
same,MADRS Inability to Feel improvement,[5]; Day 1,3
same,MADRS Inability to Feel score,[5]; Day 1,0
same,MADRS Lassitude improvement,[5]; Day 1,3
same,MADRS Pessimistic Thoughts improvement,[5]; Day 1,4
same,MADRS Pessimistic Thoughts score,[5]; Day 1,0
same,MADRS Reported sadness improvement,[5]; Day 1,4
same,MADRS Reported sadness score,[5]; Day 1,0
same,MADRS Apparent sadness improvement,[5]; Day 1,5
same,MADRS Apparent sadness score,[5]; Day 1,0
same,MADRS Inner Tension improvement,[5]; Day 1,5
same,MADRS Inner Tension score,[5]; Day 1,0
same,MADRS Reduced Sleep improvement,[5]; Day 1,5
same,MADRS Reduced Sleep score,[5]; Day 1,0
same,MADRS Concentration Difficulties improvement,[5]; Day 7,0
same,MADRS Concentration Difficulties score,[5]; Day 7,0
same,MADRS Reduced appetite improvement,[5]; Day 7,0
same,MADRS Reduced appetite score,[5]; Day 7,0
same,MADRS Suicidal Thoughts improvement,[5]; Day 7,0
same,MADRS Suicidal Thoughts score,[5]; Day 7,0
same,MADRS Inability to Feel improvement,[5]; Day 7,3
same,MADRS Inability to Feel score,[5]; Day 7,0
same,MADRS Lassitude improvement,[5]; Day 7,3
same,MADRS Lassitude score,[5]; Day 7,0
same,MADRS Pessimistic Thoughts improvement,[5]; Day 7,4
same,MADRS Pessimistic Thoughts score,[5]; Day 7,0
same,MADRS Reported sadness improvement,[5]; Day 7,4
same,MADRS Reported sadness score,[5]; Day 7,0
same,MADRS Apparent sadness improvement,[5]; Day 7,5
same,MADRS Apparent sadness score,[5]; Day 7,0
same,MADRS Inner Tension improvement,[5]; Day 7,4
same,MADRS Inner Tension score,[5]; Day 7,1
same,MADRS Reduced Sleep improvement,[5]; Day 7,5
same,MADRS Reduced Sleep score,[5]; Day 7,0
same,Durability of clinical response,[5]; IDR 6 mg then 12 mg,sustained over the 7-day follow-up period
same,Time to clinical response after administration,[5]; IDR 6 mg then 12 mg,≤ 2 h
